Tested on: SEM cells
Experiment: cell viability relative to DMSO control; higher = less cytotoxic
Settings: 48 h
Method in brief: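 Library compounds in DMSO were pin-dosed into 1536-well plates (5 μl) holding NOMO1 or SEM (500 cells/well) or P12-Ichikawa (1000 cells/well) leukemia cells, across an 11-point threefold series of 47 μM to 0.79 nM. Each cell line had been adapted for at least four passages in each medium. CellTiter-Glo One luminescence was read after 48 h at 37°C. Viability is the per-plate percentage relative to DMSO wells, with cell-free wells as background.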

[1] = HPLM + 10% dialyzed FBS, 0.000781 µM
[2] = HPLM + 10% dialyzed FBS, 0.00234 µM
[3] = HPLM + 10% dialyzed FBS, 0.00702 µM
[4] = HPLM + 10% dialyzed FBS, 0.0211 µM
[5] = HPLM + 10% dialyzed FBS, 0.0632 µM
[6] = HPLM + 10% dialyzed FBS, 0.19 µM
[7] = HPLM + 10% dialyzed FBS, 0.569 µM
[8] = HPLM + 10% dialyzed FBS, 1.71 µM
[9] = HPLM + 10% dialyzed FBS, 5.12 µM
[10] = HPLM + 10% dialyzed FBS, 15.4 µM
[11] = HPLM + 10% dialyzed FBS, 46.1 µM
[12] = RPMI 5 mM glucose + 10% FBS, 0.000781 µM
[13] = RPMI 5 mM glucose + 10% FBS, 0.00234 µM
[14] = RPMI 5 mM glucose + 10% FBS, 0.00702 µM
[15] = RPMI 5 mM glucose + 10% FBS, 0.0211 µM
[16] = RPMI 5 mM glucose + 10% FBS, 0.0632 µM
[17] = RPMI 5 mM glucose + 10% FBS, 0.19 µM
[18] = RPMI 5 mM glucose + 10% FBS, 0.569 µM
[19] = RPMI 5 mM glucose + 10% FBS, 1.71 µM
[20] = RPMI 5 mM glucose + 10% FBS, 5.12 µM
[21] = RPMI 5 mM glucose + 10% FBS, 15.4 µM
[22] = RPMI 5 mM glucose + 10% FBS, 46.1 µM
[23] = RPMI 5 mM glucose + 10% dialyzed FBS, 0.000781 µM
[24] = RPMI 5 mM glucose + 10% dialyzed FBS, 0.00234 µM
[25] = RPMI 5 mM glucose + 10% dialyzed FBS, 0.00702 µM
[26] = RPMI 5 mM glucose + 10% dialyzed FBS, 0.0211 µM
[27] = RPMI 5 mM glucose + 10% dialyzed FBS, 0.0632 µM
[28] = RPMI 5 mM glucose + 10% dialyzed FBS, 0.19 µM
[29] = RPMI 5 mM glucose + 10% dialyzed FBS, 0.569 µM
[30] = RPMI 5 mM glucose + 10% dialyzed FBS, 1.71 µM
[31] = RPMI 5 mM glucose + 10% dialyzed FBS, 5.12 µM
[32] = RPMI 5 mM glucose + 10% dialyzed FBS, 15.4 µM
[33] = RPMI 5 mM glucose + 10% dialyzed FBS, 46.1 µM

C[C@@H]1O[C@@H](O[C@H]2C[C@@H](O)[C@]3(CO)[C@H]4[C@H](O)C[C@]5(C)[C@@H](C6=CC(=O)OC6)CC[C@]5(O)[C@@H]4CC[C@]3(O)C2)[C@H](O)[C@H](O)[C@H]1O
cell viability [1]: 85.4%
cell viability [2]: 99.6%
cell viability [3]: 93.6%
cell viability [4]: 85.8%
cell viability [5]: 17.8%
cell viability [6]: 9.08%
cell viability [7]: 7.03%
cell viability [8]: 5.97%
cell viability [9]: 7.25%
cell viability [10]: 6.63%
cell viability [11]: 6.23%
cell viability [12]: 109%
cell viability [13]: 113%
cell viability [14]: 114%
cell viability [15]: 106%
cell viability [16]: 109%
cell viability [17]: 14.9%
cell viability [18]: 7.93%
cell viability [19]: 6.18%
cell viability [20]: 8%
cell viability [21]: 7.1%
cell viability [22]: 6.23%
cell viability [23]: 104%
cell viability [24]: 100%
cell viability [25]: 97.3%
cell viability [26]: 98.3%
cell viability [27]: 60%
cell viability [28]: 12.6%
cell viability [29]: 7.03%
cell viability [30]: 6.93%
cell viability [31]: 8.44%
cell viability [32]: 7.07%
cell viability [33]: 7.5%

O=C(CC12CC3CC(CC(C3)C1)C2)Nc1cccc2nc(NCCNCCO)ccc12
cell viability [1]: 81.1%
cell viability [2]: 82.1%
cell viability [3]: 73.8%
cell viability [4]: 96.5%
cell viability [5]: 78.2%
cell viability [6]: 77.8%
cell viability [7]: 93.8%
cell viability [8]: 64.1%
cell viability [9]: 84.6%
cell viability [10]: 101%
cell viability [11]: 36.3%
cell viability [12]: 90.5%
cell viability [13]: 99.3%
cell viability [14]: 83.6%
cell viability [15]: 96.3%
cell viability [16]: 75.6%
cell viability [17]: 76.1%
cell viability [18]: 94.4%
cell viability [19]: 83.3%
cell viability [20]: 82.7%
cell viability [21]: 101%
cell viability [22]: 21.9%
cell viability [23]: 82.8%
cell viability [24]: 87.7%
cell viability [25]: 65.3%
cell viability [26]: 94.8%
cell viability [27]: 81.6%
cell viability [28]: 72.5%
cell viability [29]: 102%
cell viability [30]: 78.7%
cell viability [31]: 94.6%
cell viability [32]: 82.6%
cell viability [33]: 40%

COc1cc([C@@H]2c3cc4c(cc3[C@H](O)[C@H]3COC(=O)[C@@H]23)OCO4)cc(OC)c1OC
cell viability [1]: 83.1%
cell viability [2]: 82.7%
cell viability [3]: 95.3%
cell viability [4]: 101%
cell viability [5]: 86.7%
cell viability [6]: 69.5%
cell viability [7]: 30.2%
cell viability [8]: 19.1%
cell viability [9]: 18.8%
cell viability [10]: 13.2%
cell viability [11]: 11.6%
cell viability [12]: 101%
cell viability [13]: 97.2%
cell viability [14]: 104%
cell viability [15]: 98.3%
cell viability [16]: 93.5%
cell viability [17]: 80.7%
cell viability [18]: 23.2%
cell viability [19]: 12.1%
cell viability [20]: 12.2%
cell viability [21]: 13.5%
cell viability [22]: 6.13%
cell viability [23]: 75.4%
cell viability [24]: 76%
cell viability [25]: 99.9%
cell viability [26]: 86.5%
cell viability [27]: 81.2%
cell viability [28]: 63%
cell viability [29]: 29.2%
cell viability [30]: 16.8%
cell viability [31]: 17.9%
cell viability [32]: 16.9%
cell viability [33]: 8.73%

C[C@@H]1CN(Cc2ccc(F)cc2)[C@@H](C)CN1C(=O)c1cc2c(C(=O)C(=O)N(C)C)cn(C)c2cc1Cl
cell viability [1]: 97.6%
cell viability [2]: 99.7%
cell viability [3]: 100%
cell viability [4]: 111%
cell viability [5]: 111%
cell viability [6]: 109%
cell viability [7]: 106%
cell viability [8]: 102%
cell viability [9]: 85.6%
cell viability [10]: 98.2%
cell viability [11]: 97.2%
cell viability [12]: 84.5%
cell viability [13]: 78.1%
cell viability [14]: 85%
cell viability [15]: 87.2%
cell viability [16]: 101%
cell viability [17]: 91.1%
cell viability [18]: 96.8%
cell viability [19]: 87.4%
cell viability [20]: 97.6%
cell viability [21]: 72.3%
cell viability [22]: 57%
cell viability [23]: 115%
cell viability [24]: 104%
cell viability [25]: 110%
cell viability [26]: 107%
cell viability [27]: 119%
cell viability [28]: 108%
cell viability [29]: 108%
cell viability [30]: 109%
cell viability [31]: 82.3%
cell viability [32]: 97.2%
cell viability [33]: 75.4%

CC(C)=CCC/C(C)=C/CC/C(C)=C/CSc1ccccc1C(=O)O
cell viability [1]: 97.5%
cell viability [2]: 116%
cell viability [3]: 111%
cell viability [4]: 97.3%
cell viability [5]: 93.2%
cell viability [6]: 81.2%
cell viability [7]: 80%
cell viability [8]: 67.3%
cell viability [9]: 58.3%
cell viability [10]: 30.3%
cell viability [11]: 8.4%
cell viability [12]: 118%
cell viability [13]: 124%
cell viability [14]: 111%
cell viability [15]: 119%
cell viability [16]: 117%
cell viability [17]: 106%
cell viability [18]: 96.6%
cell viability [19]: 71.8%
cell viability [20]: 62.4%
cell viability [21]: 22.3%
cell viability [22]: 2.67%
cell viability [23]: 94.6%
cell viability [24]: 105%
cell viability [25]: 84.7%
cell viability [26]: 106%
cell viability [27]: 97.8%
cell viability [28]: 99.1%
cell viability [29]: 74.8%
cell viability [30]: 71.2%
cell viability [31]: 62.5%
cell viability [32]: 33.8%
cell viability [33]: 8.59%

C/C(=N\NC(=S)N1CCC1)c1ccccn1
cell viability [1]: 98.2%
cell viability [2]: 65.1%
cell viability [3]: 24%
cell viability [4]: 16.3%
cell viability [5]: 8.49%
cell viability [6]: 7%
cell viability [7]: 6.15%
cell viability [8]: 4.65%
cell viability [9]: 3.75%
cell viability [10]: 2.98%
cell viability [11]: 4.69%
cell viability [12]: 102%
cell viability [13]: 77.1%
cell viability [14]: 23.7%
cell viability [15]: 12.9%
cell viability [16]: 6.82%
cell viability [17]: 6.63%
cell viability [18]: 5.22%
cell viability [19]: 3.59%
cell viability [20]: 2.32%
cell viability [21]: 1.6%
cell viability [22]: 3.57%
cell viability [23]: 110%
cell viability [24]: 53.4%
cell viability [25]: 19.2%
cell viability [26]: 15.8%
cell viability [27]: 6.49%
cell viability [28]: 6.19%
cell viability [29]: 5.7%
cell viability [30]: 4.26%
cell viability [31]: 3.13%
cell viability [32]: 1.84%
cell viability [33]: 2.93%

C[C@]12Cc3cn[nH]c3C[C@@H]1CC[C@@H]1[C@@H]2CC[C@@]2(C)[C@H]1CC[C@]2(C)O
cell viability [1]: 108%
cell viability [2]: 105%
cell viability [3]: 105%
cell viability [4]: 79.7%
cell viability [5]: 100%
cell viability [6]: 88.6%
cell viability [7]: 83.6%
cell viability [8]: 75.8%
cell viability [9]: 90.4%
cell viability [10]: 97.4%
cell viability [11]: 88.1%
cell viability [12]: 102%
cell viability [13]: 108%
cell viability [14]: 104%
cell viability [15]: 119%
cell viability [16]: 116%
cell viability [17]: 104%
cell viability [18]: 118%
cell viability [19]: 104%
cell viability [20]: 99.4%
cell viability [21]: 114%
cell viability [22]: 101%
cell viability [23]: 103%
cell viability [24]: 94.9%
cell viability [25]: 106%
cell viability [26]: 123%
cell viability [27]: 110%
cell viability [28]: 103%
cell viability [29]: 108%
cell viability [30]: 107%
cell viability [31]: 111%
cell viability [32]: 105%
cell viability [33]: 95.8%
